From US20020197269A1, “Pharmaceutical composition for immunomodulation and preparation of vaccines” (CISTEM BIOTECHNOLOGIES GMBH, priority 2000, published 2002)
In the oligonucleotide strings, read from the 5' end, every base follows the letter of its sugar. An asterisk marks phosphorothioate; unmarked linkages are phosphodiester. Other units and linkages are bracketed, terminal groups are in braces. A string of capitals states the bases alone. d = 2'-deoxy (DNA)

System: MC1R-peptide (WGPFFLHL) specific IFN-γ-producing cells
Assay: IFN-γ-ELISPOT after footpad injection with MC1R-peptide (Example 3)
Type: in vivo, Mice C57B1/6
Details: co-injected with MC1R-peptide 300 μg/mouse into hind footpads; 4 days after injection; CpG-ODN 5 nmol/mouse

## CpG 1668: thiophosphate substituted ODNs containing a CpG motif: TCCATGACGTTCCTGATGCT (DNA dT*dC*dC*dA*dT*dG*dA*dC*dG*dT*dT*dC*dC*dT*dG*dA*dT*dG*dC*dT)
  peptide-specific IFN-γ-producing cells / peptide-specific response (IFN-γ-ELISPOT): low numbers
